≈ marks a conversion by molar mass, not a printed value. Where two headings read alike, the source gives them in different places.
Legend:
Format in all cases: cell-based
HIV-1 NL432 = test: Antiviral assay in infected Molt-4 cells, virus measured by RT activity; conditions: read-out: EC50 HIV-1 NL432
Procedure: (§1) (1) Molt-4 cells (2×10^6 cells) were infected with HIV-1 NL432 (4×10^6 cpm), HIV-2 Rod (8×10^6 cpm), SIVmac MA239 (8×10^6 cpm) and SIVagm SA212 (8×10^6 cpm), and incubated for 1 hr at room temperature.
(§2) {circle over (1)} Preparation of HIV-1 virus: SW480 cells were cultured in DMEM medium supplemented with 10% fetal bovine serum using 25 cm^2 flask. HIV-1 infectious molecular DNA (40 μg), pNL432, transfected to the cells by calcium phosphate coprecipitation method, and the supernatant (2 mL) at 2-3 days post-transfection was infected to M8166 cells (1×10^6 cells). The cells were cultured in 10 mL RPMI medium supplemented with 10% fetal bovine serum in CO2 incubator at 37° C. After apparent giant cells were observed, the cells were removed by centrifugation and then the supernatant was filtrated by 0.45 μm filter, measured RT activity, and stored at −80° C. as HIV-1 stock virus.
(§3) {circle over (2)} The cells were washed twice to remove the viruses and suspended in 10 mL RPMI medium supplemented with 10% fetal bovine serum. The infected cells (100 μL) were plated in 96-well microtiter plates containing with the serial 5 fold dilution of compounds (100 μL) and cultured in CO2 incubator at 37° C.
(§4) {circle over (3)} The supernatant at 5 days postinfection was harvested and measured the amount of the virus by RT activity.
(§5) Preparation of the solution for RT assay:
(§6) A reaction mixture (90 μL) were contained 50 mM Tris-HCl, pH 8.3, 150 mM KCl, 10 mM MgCl2, 0.1% Nonidet P-40, 10 mM DTT (dithiothreitol), 5 μg/mL poly(rA), 5 μg/mL (dT)12-18 and 1 μCi [^3H] dTTP at final concentration after mixture of a sample (10 μL).
(§7) The procedure of RT assay:
(§8) 1. 10 μL of sample was plated to 3 wells of 96-well microtiter plate (triplicate assay).
(§9) 2. Reaction mixture (90 μL) chilled at 4° C. was added to each well, mixed and then incubate at 37° C. for 3 hrs.
(§10) 3. After incubation, the plate was chilled on ice, and passed through a DEAE-Filtermat using cell harvester. The filter was washed with 4.5% Na2HPO4 (20 see) and H2O (10 sec).
(§11) 4. The filter was dried at 95° C. for 15 min.
(§12) 5. 10 mL of scintilator was added and sealed.
(§13) 6. Radioactivity was measured by LKB Beta Plate scintillation spectroscopy.
(§14) 7. RT activity (cpm/mL) was calculated from average of three wells.

HIV-2 Rod = test: as above; conditions: read-out: EC50 HIV-2 ROD
Procedure: as §1
{circle over (2)} Preparation of HIV-2 virus: HIV-2 Rod was infected to M8166 cells (1×10^6 cells). The cells were cultured in 10 mL RPMI medium supplemented with 10% fetal bovine serum in CO2 incubator at 37° C. After apparent giant cells were observed, the cells were removed by centrifugation and then the supernatant was filtrated by 0.45 μm filter, measured RT activity, and stored at −80° C. as HIV-2 stock virus.
as §3, §4, §5, §6, §7, §8, §9, §10, §11, §12, §13, §14

SIVmac MA239 = test: as above; conditions: 120 h, RT activity of supernatant at 5 days postinfection
Procedure: as §1
as §2, with “over (3)}” for “over (1)}”, “of SIVmac” for “of HIV-1”, “flask. SIVmac MA239” for “flask. HIV-1”, “μg), pMA239,” for “μg), pNL432,”, “to CEMX174” for “to M8166”, “as SIVmac” for “as HIV-1”
as §3, §4, §5, §6, §7, §8, §9, §10, §11, §12, §13, §14

SIVagm SA212 = test: as above; conditions: 120 h, RT activity of supernatant at 5 days postinfection
Procedure: as §1
{circle over (4)} Preparation of SIVagm virus: SW480 cells were cultured in DMEM medium supplemented with 10% fetal bovine serum using 25 cm^2 flask. SIVagm SA212 infectious molecular DNA (40 μg), pSA212, transfected to the cells by calcium phosphate coprecipitation methods, and the supernatant (2 mL) at 2-3 days post-transfection was infected to M8166 cells (1×10^6 cells). The cells were cultured in 10 mL RPMI medium supplemented with 10% fetal bovine serum in CO2 incubator at 37° C. Every 3 days, the cells were separated from the supernatant by centrifugation and continued culture with new culture medium. The each supernatant was filtrated by 0.45 μm filter, measured RT activity, and stored at −80° C. as SIVagm stock virus.
as §3, §4, §5, §6, §7, §8, §9, §10, §11, §12, §13, §14

HIV (HTLV-IIIB strain) = test: MTT assay, MT-4 cells infected with HIV; conditions: Human immunodeficiency virus 1, MT4, 120 h, 5 days, inhibits 50% of cell damage caused by virus, read-out: EC50
Procedure: The inhibitory effects of each anti-human immunodeficiency virus active substance against human immunodeficiency virus have been determined by MTT assay described below.
(1) Human T cell strain Molt-4 clone 8 persistently infected HIV (HTLV-IIIB strain) was cultivated in RPMI-1640 medium supplemented with 10% fatal bovine serum, and supernatant was filtered, measured RT activity, and stored at −80° C. On the other hand, each human anti-immunodeficiency virus active substance was diluted to fixed concentration in culture medium, they were plated to 96-well microtiter plate. Subsequently, 100 μL (3.5×10^4 cells) of MT-4 cell suspension was plated to 96-well microtiter plate, and then above mentioned supernatant containing HIV, which was diluted by culture medium, was added 50 μL (60 pfu (plaque forming unit.)) to 96-well microtiter plate.
(2) After cultivation at 37° C. for 5 days in CO2 incubator, into all well was added 30 μL per well 3-(4,5-[…])-2,5-diphenyltetrazolium bromide (MTT) 5 mg/mL) and PBS, and then incubated for 1 h.
In this time, alive cells reduced MTT and formazan was precipitated, therefore, 150 μL of cell supernatants were removed from all wells, and then 150 μL of lysate (10% triton X-100 and 0.4% (v/v) HCl-containing isopropanol) was added, and formazan was eluated on a plate shaker.

[1] = test system: feline immunodeficiency virus (FIV TM-2 strain); test: FIV antiviral assay in MYA-1 feline T cells, RT activity; conditions: T-cell, 240 h, FIV TM-2, MYA-1 cells, RT activity at 10 days postinfection
Procedure: (1) The serial 5 fold diluted samples were plated in 24 well microtiter plate. Feline T-cell lines (MYA-1 cells: 4×10^5 cells/well) and feline immunodeficiency virus (FIV TM-2 strain: 3000 cpm/well) were added to each well. The cells were cultured with 1.5 mL RPMI medium supplemented with 10% fetal bovine serum, 2 μg/mL polybrene, 100 unit/mL human recombinant IL-2 and 50 μM 2-mercaptoethanol in CO2 incubator at 37° C.
{circle over (1)} Preparation of FIV TM-2 virus: FIV TM-2 was infected to MYA-1 cells (1×10^6 cells). The cells were cultured in 10 mL RPMI medium supplemented with 10% fetal bovine serum, 2 μg/mL polybrene, 100 unit/ml human recombinant IL-2 and 50 μM 2-mercaptoethanol in CO2 incubator at 37° C. Every 1-2 days, the cells were separated from the supernatant by centrifugation and continued culture with new culture medium. Each of the supernatant was filtrated by 0.45 μm filter, measured RT activity, and stored at as −80° C. as FIV stock virus.
(2) Every 1-2 days, the supernatants were measured the amount of the virus by RT activity (as same as experimental example 2).

[2] = Human immunodeficiency virus 1, 120 h, Molt-4 cells, RT activity of supernatant at 5 days postinfection
[3] = Human immunodeficiency virus 2, 120 h, Molt-4 cells, RT activity of supernatant at 5 days postinfection

EC50 (HIV-1 NL432; [2]) [ng/mL]	EC50 (HIV-2 Rod; [3]) [ng/mL]	EC50 (SIVmac MA239) [ng/mL]	EC50 (SIVagm SA212) [ng/mL]	EC50 [1] [ng/mL]	Structure (SMILES)	EC50 (HIV (HTLV-IIIB strain)) [ng/mL]	EC50 (HIV-1 NL432; Human immunodeficiency virus 1, MOLT-4, 120 h) [ng/mL]	EC50 (HIV-2 Rod; Human immunodeficiency virus 2, MOLT-4, 120 h) [ng/mL]
8.4 (≈ 0.0366 µM)	22 (≈ 0.096 µM)	9.1 (≈ 0.0397 µM)	22 (≈ 0.096 µM)	–	Nc1ccn(C2CSC(CO)O2)c(=O)n1 (single isomer, unassigned; (-)) [Lamivudine, (−)-2′,3+-dideoxy-3′-thiacytidine]	38	–	–
57 (≈ 0.182 µM)	35 (≈ 0.112 µM)	57 (≈ 0.182 µM)	44 (≈ 0.14 µM)	300 (≈ 0.958 µM)	O=C(C=C(O)c1nc[nH]n1)c1ccc(Cc2ccc(F)cc2)o1 [Compound I-16, 1-[5-(4-Fluorobenzyl)furan-2-yl]-3-hydroxy-3-(1H-1,2,4-triazol-3-yl)propenone]	–	–	–
0.51 (≈ 0.00191 µM)	0.28 (≈ 0.00105 µM)	0.35 (≈ 0.00131 µM)	0.36 (≈ 0.00135 µM)	48 (≈ 0.18 µM)	Cc1cn(C2CC(N=[N+]=[N-])C(CO)O2)c(=O)[nH]c1=O (stereo not drawn) [Zidovudine, 3′-azido-3′-deoxycytimidine]	1.8	–	–

Structure (SMILES)	EC50 (HIV-1 NL432; [2]) [ng/mL]	EC50 (HIV-2 Rod; [3]) [ng/mL]	EC50 (SIVmac MA239) [ng/mL]	EC50 (SIVagm SA212) [ng/mL]	EC50 [1] [ng/mL]	EC50 (HIV (HTLV-IIIB strain)) [ng/mL]	EC50 (HIV-1 NL432; Human immunodeficiency virus 1, MOLT-4, 120 h) [ng/mL]	EC50 (HIV-2 Rod; Human immunodeficiency virus 2, MOLT-4, 120 h) [ng/mL]
Cc1cn([C@H]2C=C[C@@H](CO)O2)c(=O)[nH]c1=O [Stavudine]	–	–	3.4 (≈ 0.0152 µM)	4.5 (≈ 0.0201 µM)	–	50	6.1 (≈ 0.0272 µM)	4.1 (≈ 0.0183 µM)
